Where a name gives a salt, the structure may show the parent alone.
melting point	SMILES
94 to 98 °C	OC(C1CCCCC1)C(CCN1CC=C(c2ccc3ccsc3c2)CC1)c1ccccn1 (centres unmarked) (as salt: oxalate)
210 to 212 °C	OC(C1CCCCC1)C(CCN1CC=C(c2cc3ccccc3s2)CC1)c1ccccn1 (single isomer, unassigned) (as salt: oxalate)
194 to 196 °C	O=C(C1CCCCC1)C(CCN1CC=C(c2ccc3sccc3c2)CC1)c1ccccn1 (centres unmarked) (as salt: oxalate)
190 to 192 °C	OC(C1CCCCC1)C(CCN1CC=C(c2ccc3sccc3c2)CC1)c1ccccn1 (single isomer, unassigned) (as salt: oxalate)

Continued, compound first:

SMILES	melting point
O=C(C1CCCCC1)C(CCN1CC=C(c2ccc3ccsc3c2)CC1)c1ccccn1 (centres unmarked) (as salt: oxalate)	164 to 169 °C
O=C(C1CCCCC1)C(CCN1CC=C(c2csc3ccccc23)CC1)c1ccccn1 (centres unmarked) (as salt: oxalate)	208 to 210 °C
OC(C1CCCCC1)C(CCN1CC=C(c2csc3ccccc23)CC1)c1ccccn1 (centres unmarked) (as salt: oxalate)	100 to 107 °C
O=C(C1CCCCC1)C(CCN1CC=C(c2cc3ccccc3s2)CC1)c1ccccn1 (centres unmarked) (as salt: oxalate)	228 to 230 °C

From patent US6828332B1, “Piperidine derivatives as reuptake inhibitors” (Eli Lilly and Company, priority 1999, dated 2004)
